In paper PMC11855827, “High-Throughput Screening of Five Compound Libraries for Anthelmintic Activity and Toxicity Leads to the Discovery of Two Flavonoid Compounds” (International Journal of Molecular Sciences, 2025):
“And” between values parts separate entries of the source, which are not always exact repeats. Equal entries are not always repeated. Where two headings read alike, the source gives them in different places.

Tested on: C. elegans
[1] = Table S2, C. elegans SS assay, 110 μM, 0 h, averages of 4 data points
[2] = Table S2, C. elegans SS assay, 110 μM, 24 h, averages of 4 data points

Row | Compound | Percentage of motility inhibition 0 h [1] [%] | Percentage of motility inhibition 24 h [2] | Percentage of motility inhibition 0 h (110 µM) [%] | Percentage of motility inhibition 24 h (110 µM) [%]
1 | CC(=O)OC[C@H]1O[C@@H](O[C@@H]2[C@@H](O)[C@H](O[C@@H]3[C@H](O)C(C)(C)C[C@H]4C5=CC[C@@H]6[C@@]7(C)CC[C@H](O[C@@H]8O[C@H](C(=O)O)[C@@H](O)[C@H](O)[C@H]8O[C@@H]8O[C@H](CO)[C@H](O)[C@H](O)[C@H]8O[C@@H]8O[C@H](CO)[C@@H](O)[C@H](O)[C@H]8O)[C@](C)(CO)[C@@H]7CC[C@@]6(C)[C@]5(C)CC[C@@]34C)OC[C@@H]2O)[C@H](OC(C)=O)[C@@H](OC(C)=O)[C@@H]1OC(C)=O [Soyasaponin Ab] | 21 | 4% | – | –
2 | CC1(C)C[C@@H](O)[C@]2(C)CC[C@]3(C)C(=CC[C@@H]4[C@@]5(C)CC[C@H](O[C@@H]6O[C@H](C(=O)O)[C@@H](O)[C@H](O)[C@H]6O[C@@H]6O[C@H](CO)[C@H](O)[C@H](O)[C@H]6O[C@@H]6O[C@H](CO)[C@@H](O)[C@H](O)[C@H]6O)[C@](C)(CO)[C@@H]5CC[C@]43C)[C@@H]2C1 [Soyasaponin Ba] | 0 | 25% | – | –
3 | C[C@@H]1O[C@@H](O[C@H]2[C@H](O[C@H]3[C@H](O[C@H]4CC[C@@]5(C)[C@@H](CC[C@]6(C)[C@@H]5CC=C5[C@@H]7CC(C)(C)C[C@@H](O)[C@]7(C)CC[C@]56C)[C@@]4(C)CO)O[C@H](C(=O)O)[C@@H](O)[C@@H]3O)O[C@H](CO)[C@H](O)[C@@H]2O)[C@H](O)[C@H](O)[C@H]1O [Soyasaponin Bb] | 0 | 0% | – | –
4 | CN[C@@H]1[C@H](O)[C@H](NC)[C@H]2O[C@@]3(O)C(=O)C[C@@H](C)O[C@H]3O[C@@H]2[C@H]1O.Cl.Cl [Spectinomycin (dihydrochloride)] | 0 | 1% | – | –
5 | COc1cc2oc(-c3ccc(O)cc3)cc(=O)c2c(O)c1[C@@H]1O[C@H](CO)[C@@H](O)[C@H](O)[C@H]1O[C@@H]1O[C@H](CO)[C@@H](O)[C@H](O)[C@H]1O [Spinosin] | – | – | 2 | 6
6 | CCC(C)(C)C(=O)OC1=C(c2ccc(Cl)cc2Cl)C(=O)OC12CCCCC2 [Spirodiclofen] | 5 | 0% | – | –
7 | C[N+]1(C)CCC[C@H]1C(=O)[O-].Cl [Stachydrine hydrochloride] | 15 | 26% | – | –
8 | C[N+]1(C)CCC[C@H]1C(=O)[O-] [Stachydrine] | 0 | 0% | – | –
9 | CCCCCCCCCCCCCCCCCCOC(=O)[C@@]1(C)CC[C@]2(C)CC[C@]3(C)C(=CC(=O)[C@@H]4[C@@]5(C)CC[C@H](O)C(C)(C)[C@@H]5CC[C@]43C)[C@@H]2C1 [Stearyl glycyrrhetinate] | 0 | 0% | – | –
10 | C=C1C[C@@]23CC[C@H]4[C@@](C)(CCC[C@@]4(C)C(=O)O)[C@@H]2CC[C@]1(O[C@@H]1O[C@H](CO)[C@@H](O)[C@H](O)[C@H]1O[C@@H]1O[C@H](CO)[C@@H](O)[C@H](O)[C@H]1O)C3 [Steviolbioside] | 10 | 5% | – | –
11 | CN[C@@H]1[C@H](O[C@H]2[C@H](O[C@H]3[C@H](O)[C@@H](O)[C@H](N=C(N)N)[C@@H](O)[C@@H]3N=C(N)N)O[C@@H](C)[C@]2(O)C=O)O[C@@H](CO)[C@H](O)[C@H]1O.CN[C@@H]1[C@H](O[C@H]2[C@H](O[C@H]3[C@H](O)[C@@H](O)[C@H](N=C(N)N)[C@@H](O)[C@@H]3N=C(N)N)O[C@@H](C)[C@]2(O)C=O)O[C@@H](CO)[C@H](O)[C@H]1O.O=S(=O)(O)O.O=S(=O)(O)O.O=S(=O)(O)O [Streptomycin (sulfate)] | 31 | 26% | – | –
12 | CC(=O)[N-]S(=O)(=O)c1ccc(N)cc1.[Na+] [Sulfacetamide (Sodium)] | 33 | 6% | – | –
13 | Nc1ccc(S(=O)(=O)Nc2cncc(Cl)n2)cc1 [Sulfaclozine] | 3 | 1% | – | –
14 | Nc1ccc(S(=O)(=O)[N-]c2nccs2)cc1.[Na+] [Sulfathiazole (sodium)] | 15 | 6% | – | –
15 | Cc1cc(NS(=O)(=O)c2ccc(N)cc2)nc(C)n1 [Sulfisomidin] | 26 | 10% | – | –
16 | CNCC(O)c1ccc(O)cc1.Cl (centres unmarked) [Synephrine (hydrochloride)] | 0 | 4% | – | –
17 | CC(=O)OC[C@]12C[C@H](OC(=O)CC(C)C)C(C)=C[C@H]1O[C@@H]1[C@H](O)[C@@H](OC(C)=O)[C@@]2(C)[C@]12CO2 [T-2 Toxin] | – | – | 11 | 2
18 | Cc1ccc(CCCO)c(NCc2ccc3nc(NCCCN4CCOCC4)n(Cc4nc(C)ccc4O)c3c2)c1 [TMC353121] | 25 | 4% | – | –
19 | C=C1CC[C@]2(C)CC[C@]3(C)[C@H](CC[C@@H]4[C@@]5(C)CC[C@H](O)C(C)(C)[C@@H]5CC[C@]43C)[C@H]2[C@@H]1C [Taraxasterol] | 1 | 2% | – | –
20 | CCN(CC)c1nc2c(S(=O)(=O)c3ccc(Cl)cc3)nnn2c2cc(OC)c(OC)cc12 [Targocil] | 21 | 11% | – | –

Row | Compound | Percentage of motility inhibition 0 h [1] [%] | Percentage of motility inhibition 24 h [2] | Percentage of motility inhibition 0 h (110 µM) [%] | Percentage of motility inhibition 24 h (110 µM) [%]
21 | C[C@H](CCC(=O)NCCS(=O)(=O)[O-])[C@H]1CC[C@H]2[C@@H]3CC[C@@H]4C[C@H](O)CC[C@]4(C)[C@H]3C[C@H](O)[C@]12C.[Na+] [Taurodeoxycholic acid (sodium hydrate)] | 8 | 3% | – | –
22 | C[C@@H]1O[C@@H](Oc2cc(O)c3c(c2)O[C@H](c2ccc(O)c(O)c2)[C@@H](O)C3=O)[C@H](O)[C@H](O)[C@H]1O [Taxifolin 7‐O‐rhamnoside] | 33 | 12% | – | –
23 | COc1cc(O)c2c(=O)cc(-c3ccccc3)oc2c1 [Tecto chrysin] | 0 | 11% | – | –
24 | COc1c(O[C@@H]2O[C@H](CO[C@@H]3OC[C@@H](O)[C@H](O)[C@H]3O)[C@@H](O)[C@H](O)[C@H]2O)cc2occ(-c3ccc(O)cc3)c(=O)c2c1O [Tectorigenin 7‐O‐Xylosyl Glucoside] | 0 | 1% | – | –
25 | Cn1nnc(-c2ccc(-c3ccc(N4C[C@H](COP(=O)(O)O)OC4=O)cc3F)cn2)n1 [Tedizolid (phosphate)] | 10 | 12% | – | –
26 | CC(C)OC(=O)OCOP(=O)(CO[C@H](C)Cn1cnc2c(N)ncnc21)OCOC(=O)OC(C)C.O=C(O)/C=C/C(=O)O [Tenofovir (Disoproxil Fumarate)] | 5 | 1% | – | –
27 | CC(C)OC(=O)OCOP(=O)(CO[C@H](C)Cn1cnc2c(N)ncnc21)OCOC(=O)OC(C)C [Tenofovir (Disoproxil)] | 23 | 7% | – | –
28 | COc1cc(/C=C/C(=O)O[C@H]2[C@H](O)[C@@H](CO)O[C@@]2(CO)O[C@H]2O[C@H](COC(=O)c3ccc(O)cc3)[C@@H](O)[C@H](O)[C@H]2O)cc(OC)c1OC [Tenuifoliside A] | 0 | 15% | – | –
29 | CC1(C)CC[C@]2(C(=O)O)CCC3=C([C@@H](CCl)C[C@@H]4[C@@]5(C)C[C@H](O)[C@H](O)[C@@](C)(C(=O)O)[C@@H]5CC[C@@]34C)[C@@H]2C1 [Tenuigenin] | 11 | 11% | – | –
30 | CC1(O)CCC(C(C)(C)O)CC1.O (centres unmarked) [Terpin (hydrate)] | 9 | 5% | – | –
31 | CN(C)[C@@H]1C(=O)C(C(N)=O)=C(O)[C@@]2(O)C(=O)C3=C(O)c4c(O)cccc4[C@@](C)(O)[C@H]3C[C@@H]12.Cl [Tetracycline (hydrochloride)] | 26 | 11% | – | –
32 | COc1cc2c(cc1OC)C1Cc3ccc4c(c3CN1CC2)OCO4 (centres unmarked) [Tetrahydroepiberberine] | 10 | 3% | – | –
33 | COc1cc2c(cc1OC)C1Cc3ccc(OC)c(OC)c3CN1CC2.Cl (centres unmarked) [Tetrahydropalmatine (hydrochloride)] | 0 | 9% and 7% | – | –
34 | O=C(O[C@@H]1Cc2c(O)cc(O)cc2O[C@@H]1c1cc(=O)c(O)c2c(O)c(O)cc([C@H]3Oc4cc(O)cc(O)c4C[C@H]3O)c2c1)c1cc(O)c(O)c(O)c1 [Theaflavin‐3‐gallate] | 8 | 22% | – | –
35 | O=c1cccc2n1C[C@H]1C[C@@H]2CN2CCCC[C@@H]12 [Thermopsine] | 0 | 2% | – | –
36 | Cc1ncc(C[n+]2csc(CCO)c2C)c(N)n1.Cl.[Cl-] [Thiamine (hydrochloride)] | 2 | 13% | – | –
37 | Cc1ncc(C[n+]2csc(CCO)c2C)c(N)n1.O=[N+]([O-])[O-] [Thiamine nitrate] | 12 | 1% | – | –
38 | C=C[C@]1(C)C[C@@H](OC(=O)CSCCN(CC)CC)[C@]2(C)[C@H](C)CC[C@]3(CCC(=O)[C@H]32)[C@@H](C)[C@@H]1O.O=C(O)/C=C/C(=O)O [Tiamulin (fumarate)] | 9 | 9% | – | –
39 | C/C=C(\C)C(=O)OC1C[C@H]2CC[C@@H](C1)N2C (some centres unmarked) [Tigloidin] | 0 | 0% | – | –
40 | COc1ccc(-c2cc(=O)c3c(O)cc(O[C@@H]4O[C@H](CO)[C@@H](O)[C@H](O)[C@H]4O)cc3o2)cc1 [Tilianin] | 13 | 3% | – | –
